Test results taken from article PMC11881035, “^68Ga-Labeled Glycopeptides as Effective Tools for Liver Function Imaging” (Molecular Pharmaceutics, 2025).
Where two headings read alike, the source gives them in different places.

How the values were obtained:
[1] = protein binding in human serum; assay type: in vitro ADME; conditions: human, serum, read-out: protein binding (%) (converted)
Method: (§1) The ^68Ge/^68Ga generator, devices for analytical HPLC, semipreparative HPLC, mass spectrometry, radio-thin layer chromatography, gamma counter and animal models for biodistribution and imaging studies including the image reconstruction procedures were the same as described before.[22] Stability assays in PBS and human blood serum, protein binding as well as determination of log D values followed established protocols.[25] Binding affinities (IC50) of selected ligands were determined in an isolated receptor-based assay according to a previously published procedure with minor modifications.[22] Dilutions of nonradioactive complexes were made with PBS + 0.1% BSA (10^–5–10^–12 M). Preparation of [^125I]I-Asialoorosomucoid which serves as the radioactive standard ligand has been published recently.[21]

ASGR = molecular target: T1, ASGR (Mus musculus, UniProt P24721+P34927); experiment: blocking experiment, coinjection of N-acetylgalactosamine, biodistribution in BALB/c mice; conditions: in vivo, 30 min p.i., 27.7 μmol N-acetylgalactosamine
T1 construct: from tissue; host or cells: liver and other organs of living healthy female BALB/c mice
T1 sequence (P34927 1-284): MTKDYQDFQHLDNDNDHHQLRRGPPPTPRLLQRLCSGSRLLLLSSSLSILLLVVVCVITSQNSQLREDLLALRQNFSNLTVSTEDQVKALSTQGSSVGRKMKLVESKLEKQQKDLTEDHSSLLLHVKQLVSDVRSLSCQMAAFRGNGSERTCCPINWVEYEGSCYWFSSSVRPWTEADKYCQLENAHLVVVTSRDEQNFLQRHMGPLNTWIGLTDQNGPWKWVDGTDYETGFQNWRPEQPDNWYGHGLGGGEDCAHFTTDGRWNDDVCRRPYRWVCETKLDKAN
T1 sequence (P24721 1-301): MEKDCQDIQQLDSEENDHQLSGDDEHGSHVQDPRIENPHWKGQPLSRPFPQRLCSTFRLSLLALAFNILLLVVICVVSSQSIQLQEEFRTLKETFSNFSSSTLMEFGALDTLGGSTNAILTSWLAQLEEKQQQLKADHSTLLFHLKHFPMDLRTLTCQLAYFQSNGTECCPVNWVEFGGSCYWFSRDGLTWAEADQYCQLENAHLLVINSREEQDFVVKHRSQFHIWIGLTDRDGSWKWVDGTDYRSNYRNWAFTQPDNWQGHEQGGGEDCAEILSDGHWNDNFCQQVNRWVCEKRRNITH
Method: Less liver uptake was found for [^68Ga]Ga-NODAGA-HexaLysan (55.5 ± 7.4% ID/g, 30 min p.i.) and least for [^68Ga]Ga-NODAGA-TriLysan (9.4 ± 2.0% ID/g, 30 min p.i.). […] However, an increasing activity accumulation in the intestine was found for [^68Ga]Ga-NODAGA-NonaLysan, [^68Ga]Ga-NODAGA-GalNAc-Nonalysan, and [^68Ga]Ga-NODAGA-HexaLysan over time. Nevertheless, liver-to-organ ratios were highest for [^68Ga]Ga-NODAGA-NonaLysan (Figure 3). Lower liver-to-organ ratios were found for the GalNAc derivative due to higher off-target binding in the pancreas, stomach, heart, muscle, lung, and femur. […] Coinjection of both nonamers with a large excess of N-acetylgalactosamine led to a statistically significant reduction of liver uptake indicating specific interactions of the tracers with their target (Figure 4). As a consequence of the reduced liver uptake also a reduction of the intestinal uptake was observed.
Figure 4 Data (% ID/g) from the blocking experiments using ^68Ga-labeled NODAGA-GalNAc-NonaLysan and NODAGA-NonaLysan in healthy BALB/c mice at 30 min p.i. Blocking was carried out using 27.7 μmol of N-acetylgalactosamine (**p ≤ 0.01; *p ≤ 0.05).

complex stability in PBS = assay type: physicochemical
Method: as §1

log D determination = assay type: physicochemical; conditions: read-out: log D
Method: as §1

[2] = biodistribution in healthy BALB/c mice; conditions: mouse, in vivo; for tissue uptake at 10 min: 10 min p.i.; for tissue uptake at 0.5 h: 30 min p.i.; for tissue uptake at 1 h: 60 min p.i.
Method: as §1
Animal experiments were performed in accordance with the Austrian animal experiments law (BGBl. I Nr. 114/2012) and the institution’s animal welfare standards as approved by the Austrian Federal Ministry of Education, Science and Research (BMBWF, 2022–0.311.708). Imaging experiments were conducted at Werner Siemens Imaging Center (Tübingen, Germany) according to the German animal welfare act as approved by the local authorities (R5/19 G, R09/21 G).
Figure 2 Biodistribution data (% ID/g) of ^68Ga-labeled NODAGA-GalNAc-NonaLysan, NODAGA-NonaLysan, NODAGA-HexaLysan, and NODAGA-TriLysan in healthy BALB/c mice at 10, 30, and 60 min p.i. (100 pmol, 1 MBq).

[3] = complex stability in human blood serum; assay type: in vitro ADME
Method: as §1

CC(=O)N[C@@H]1[C@@H](O)[C@@H](O)[C@@H](CO)O[C@H]1n1cc(CCCCC(=O)NCCCC[C@H](NC(=O)CCCNC(=O)CCC(C(=O)O)N2CCN(CC(=O)O)CCN(CC(=O)O)CC2)C(=O)NCC(=O)NCC(=O)N[C@@H](CCCCNC(=O)CCCCc2cn([C@@H]3O[C@H](CO)[C@H](O)[C@H](O)[C@H]3NC(C)=O)nn2)C(=O)NCC(=O)NCC(=O)N[C@@H](CCCCNC(=O)CCCCc2cn([C@@H]3O[C@H](CO)[C@H](O)[C@H](O)[C@H]3NC(C)=O)nn2)C(=O)NCC(=O)NCC(=O)N[C@@H](CCCCNC(=O)CCCCc2cn([C@@H]3O[C@H](CO)[C@H](O)[C@H](O)[C@H]3NC(C)=O)nn2)C(=O)NCC(=O)NCC(=O)N[C@@H](CCCCNC(=O)CCCCc2cn([C@@H]3O[C@H](CO)[C@H](O)[C@H](O)[C@H]3NC(C)=O)nn2)C(=O)NCC(=O)NCC(=O)N[C@@H](CCCCNC(=O)CCCCc2cn([C@@H]3O[C@H](CO)[C@H](O)[C@H](O)[C@H]3NC(C)=O)nn2)C(=O)NCC(=O)NCC(=O)N[C@@H](CCCCNC(=O)CCCCc2cn([C@@H]3O[C@H](CO)[C@H](O)[C@H](O)[C@H]3NC(C)=O)nn2)C(=O)NCC(=O)NCC(=O)N[C@@H](CCCCNC(=O)CCCCc2cn([C@@H]3O[C@H](CO)[C@H](O)[C@H](O)[C@H]3NC(C)=O)nn2)C(=O)NCC(=O)NCC(=O)N[C@@H](CCCCNC(=O)CCCCc2cn([C@@H]3O[C@H](CO)[C@H](O)[C@H](O)[C@H]3NC(C)=O)nn2)C(=O)NCC(=O)NCC(N)=O)nn1 (stereo partly drawn) [[^68Ga]Ga-NODAGA-GalNAc-NonaLysan, metal not drawn]
fraction unbound ([1]; 2 min): 0.858 | fraction unbound ([1]; 30 min): 0.86 | fraction unbound ([1]; 60 min): 0.826 | fraction unbound ([1]; 120 min): 0.884 | tissue uptake at 0.5 h (ASGR; read-out: Blood uptake): 0.4 ± 0.1 %ID/g | tissue uptake at 0.5 h (ASGR; read-out: Femur uptake): 0.7 ± 0.3 %ID/g | tissue uptake at 0.5 h (ASGR; read-out: Heart uptake): 0.8 ± 0.1 %ID/g | tissue uptake at 0.5 h (ASGR; read-out: Intestine uptake): 1.9 ± 0.4 %ID/g | tissue uptake at 0.5 h (ASGR; read-out: Kidneys uptake): 1.9 ± 0.4 %ID/g | tissue uptake at 0.5 h (ASGR; read-out: Liver uptake): 52.9 ± 3.2 %ID/g | tissue uptake at 0.5 h (ASGR; read-out: Lung uptake): 1.3 ± 0.3 %ID/g | tissue uptake at 0.5 h (ASGR; read-out: Muscle uptake): 1 ± 0.3 %ID/g | tissue uptake at 0.5 h (ASGR; read-out: Pancreas uptake): 1.5 ± 0.8 %ID/g | tissue uptake at 0.5 h (ASGR; read-out: Spleen uptake): 0.3 ± 0.02 %ID/g | tissue uptake at 0.5 h (ASGR; read-out: Stomach uptake): 2.4 ± 0.9 %ID/g | complex stability in PBS (% intact ligand) (complex stability in PBS; 2 min): 99.1% | complex stability in PBS (% intact ligand) (complex stability in PBS; 30 min): 99.0% | complex stability in PBS (% intact ligand) (complex stability in PBS; 60 min): 99.1% | complex stability in PBS (% intact ligand) (complex stability in PBS; 120 min): 99.1% | logD (log D determination): -4.05 | tissue uptake at 10 min ([2]; read-out: Blood uptake): 0.9 ± 0.5 %ID/g | tissue uptake at 10 min ([2]; read-out: Femur uptake): 0.9 ± 0.4 %ID/g | tissue uptake at 10 min ([2]; read-out: Heart uptake): 1.9 ± 0.5 %ID/g | tissue uptake at 10 min ([2]; read-out: Intestine uptake): 1.3 ± 0.3 %ID/g | tissue uptake at 10 min ([2]; read-out: Kidneys uptake): 3.6 ± 2.7 %ID/g | tissue uptake at 10 min ([2]; read-out: Liver uptake): 69.4 ± 5 %ID/g | tissue uptake at 10 min ([2]; read-out: Lung uptake): 1.5 ± 0.1 %ID/g | tissue uptake at 10 min ([2]; read-out: Muscle uptake): 1.3 ± 0.3 %ID/g | tissue uptake at 10 min ([2]; read-out: Pancreas uptake): 5 ± 0.5 %ID/g | tissue uptake at 10 min ([2]; read-out: Spleen uptake): 0.3 ± 0.1 %ID/g | tissue uptake at 10 min ([2]; read-out: Stomach uptake): 2.3 ± 0.4 %ID/g | tissue uptake at 0.5 h ([2]; read-out: Blood uptake): 0.3 ± 0.1 %ID/g | tissue uptake at 0.5 h ([2]; read-out: Femur uptake): 0.8 ± 0.1 %ID/g | tissue uptake at 0.5 h ([2]; read-out: Heart uptake): 1.7 ± 0.2 %ID/g | tissue uptake at 0.5 h ([2]; read-out: Intestine uptake): 3.5 ± 0.2 %ID/g | tissue uptake at 0.5 h ([2]; read-out: Kidneys uptake): 1.5 ± 0.2 %ID/g | tissue uptake at 0.5 h ([2]; read-out: Liver uptake): 77.6 ± 8 %ID/g | tissue uptake at 0.5 h ([2]; read-out: Lung uptake): 1.5 ± 0.2 %ID/g | tissue uptake at 0.5 h ([2]; read-out: Muscle uptake): 1.2 ± 0.1 %ID/g | tissue uptake at 0.5 h ([2]; read-out: Pancreas uptake): 5.6 ± 0.6 %ID/g | tissue uptake at 0.5 h ([2]; read-out: Spleen uptake): 0.3 ± 0.03 %ID/g | tissue uptake at 0.5 h ([2]; read-out: Stomach uptake): 2.7 ± 1 %ID/g | tissue uptake at 1 h ([2]; read-out: Blood uptake): 0.3 ± 0.1 %ID/g | tissue uptake at 1 h ([2]; read-out: Femur uptake): 0.9 ± 0.4 %ID/g | tissue uptake at 1 h ([2]; read-out: Heart uptake): 1.7 ± 0.1 %ID/g | tissue uptake at 1 h ([2]; read-out: Intestine uptake): 5.6 ± 0.03 %ID/g | tissue uptake at 1 h ([2]; read-out: Kidneys uptake): 1.3 ± 0.02 %ID/g | tissue uptake at 1 h ([2]; read-out: Liver uptake): 57.6 ± 0.7 %ID/g | tissue uptake at 1 h ([2]; read-out: Lung uptake): 1.2 ± 0.04 %ID/g | tissue uptake at 1 h ([2]; read-out: Muscle uptake): 1.1 ± 0.1 %ID/g | tissue uptake at 1 h ([2]; read-out: Pancreas uptake): 5 ± 0.6 %ID/g | tissue uptake at 1 h ([2]; read-out: Spleen uptake): 0.3 ± 0.1 %ID/g | tissue uptake at 1 h ([2]; read-out: Stomach uptake): 2.2 %ID/g | complex stability in serum (% intact ligand) ([3]; 2 min): 98.8 ± 0.1% | complex stability in serum (% intact ligand) ([3]; 30 min): 98.8% | complex stability in serum (% intact ligand) ([3]; 60 min): 99.0 ± 0.2% | complex stability in serum (% intact ligand) ([3]; 120 min): 98.8 ± 0.2%
